Experimental findings from US7622462B2, “Benzazepine derivatives and uses thereof” (Roche Palo Alto LLC, priority 2006, dated 2009) are described below.

In general, Ki refers to a dissociation constant, usually derived from enzyme kinetics or from competition with a known ligand.

What all share (assay type): binding
The target in one assay is T1, hSERT transporter (Homo sapiens, UniProt P31645).
T1 construct: expressed in transfected cells; membrane preparation
Nature of the assay: Human serotonin transporter (hSERT) scintillation proximity assay, competition with [3H]-Citalopram. The conditions noted are these: membranes of HEK-293 cells expressing recombinant hSERT, Cheng-Prusoff. Here is the method: The screening assay of this example was used to determine the affinity of ligands at the hSERT transporter by competition with [^3H]-Citalopram.
Scintillation Proximity Assay (SPA) works by bringing radioligand within close proximity to the bead's scintillant to stimulate light emission. In this assay, the receptor-containing membranes were pre-coupled to the SPA beads and the binding of the appropriate radioligand to the transporter was measured. The light emission was proportional to the amount of bound radioligand. Unbound radioligand produced no signal as a result of distant proximity to scintillant (lack of energy transfer). […]
(§1) Cell membranes were prepared using a membrane preparation buffer of 50 mM TRIS (pH 7.4). […] After a second centrifugation, the pellet was re-homogenized and brought to a final volume determined during the assay. […]
The % inhibition was calculated for each compound tested [(Compound counts per minute (CPM) at maximum concentration-Non-Specific CPM)/Total CPM*100]. […]
(§2) [formula] where max=total binding, min=non specific binding, x=concentration (M) of the tested compound and n=Hill slope. The inhibition dissociation constant (Ki) of each compound was determined according to the method of Cheng-Prusoff and then converted into negative logarithm (pKi) of the Ki.
Background: In a scintillation proximity assay essentially only radioactivity close to the scintillant gives light.

Assay [1] deals with T2, human dopamine transporter (hDAT) (Homo sapiens, UniProt Q01959).
T2 construct: expressed in transfected cells; whole cells plated on Cell-Tak coated 96 well plates
T2 sequence (Q01959 whole entry): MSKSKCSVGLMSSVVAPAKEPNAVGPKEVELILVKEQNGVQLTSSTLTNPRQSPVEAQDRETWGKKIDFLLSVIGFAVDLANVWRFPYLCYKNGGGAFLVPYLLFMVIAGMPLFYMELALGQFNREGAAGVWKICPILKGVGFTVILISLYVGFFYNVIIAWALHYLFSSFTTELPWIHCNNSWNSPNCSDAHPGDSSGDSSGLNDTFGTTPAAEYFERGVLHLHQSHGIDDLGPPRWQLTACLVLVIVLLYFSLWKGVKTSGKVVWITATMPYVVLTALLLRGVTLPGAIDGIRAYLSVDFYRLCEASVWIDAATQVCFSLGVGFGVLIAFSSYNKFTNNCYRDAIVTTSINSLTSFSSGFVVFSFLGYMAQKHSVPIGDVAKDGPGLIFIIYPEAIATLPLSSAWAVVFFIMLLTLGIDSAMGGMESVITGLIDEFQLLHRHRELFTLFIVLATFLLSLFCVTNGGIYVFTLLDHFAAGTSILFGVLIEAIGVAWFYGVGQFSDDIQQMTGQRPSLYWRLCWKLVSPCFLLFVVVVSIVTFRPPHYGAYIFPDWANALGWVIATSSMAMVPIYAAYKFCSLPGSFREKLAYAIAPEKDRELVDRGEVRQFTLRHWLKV
As to the kind of experiment: Human dopamine transporter scintillation proximity assay, competition with [3H]-Vanoxerine. The note with it: HEK-293 cells expressing recombinant hDAT; [3H]-Vanoxerine (GBR 12909); Cheng-Prusoff. Here is the method: This assay was used to determine the affinity of ligands for the dopamine transporter by competition with [^3H]-Vanoxerine.
HEK-293 cells (Tatsumi et al., Eur. J. Pharmacol. 1997, 30, 249-258) stably expressing recombinant hDAT were maintained with media (DMEM hi glucose with 10% FBS, 300 μg/ml G418 and 2 mM L-Glutamine) and incubated at 37° C. with 5% CO2. Cells were plated four hours prior to experiment by placing approximately 30,000 cells per well (in PBS) on white, opaque Cell-Tak coated 96 well plates. Extra buffer was apriated from the cell plates using an ELx405 plate washer.
^3[H] vanoxerine (GBR 12909) radioligand, specific activity approximately 59 Ci/mmol, stock concentration, 400 nM, and 50 mM Tris-HCl, 300 mM NaCl, (pH 7.4) buffers were used for Scintillation Proximity Assay IC50/Ki determination. […]
The % inhibition was calculated for each compound tested [(Compound CPM at maximum concentration-Non-Specific CPM)/Total CPM*100]. […]
as §2

The next assay addresses T3, hNET transporter (Homo sapiens, UniProt P23975).
T3 construct: expressed in transfected cells; membrane preparation
As to the kind of experiment: Human norepinephrine transporter (hNET) scintillation proximity assay, competition with [3H]-Nisoxetine. The conditions noted are these: membranes of HEK-293 cells expressing recombinant hNET, Cheng-Prusoff. Here is the method:
This assay was used to determine the affinity of ligands for the hNET transporter by competition with [^3H]-Nisoxetine. As in the hSERT assay of the above example, receptor-containing membranes were pre-coupled to the SPA beads and the binding of the appropriate radioligand to the transporter was measured. The light emission was proportional to the amount of bound radioligand, with unbound radioligand producing no signal.
HEK-293 cells (Tatsumi et al., Eur. J. Pharmacol. 1997, 30, 249-258) stably expressing recombinant hNET (Clone: HEK-hNET #2) were maintained with media (DMEM hi glucose with 10% FBS, 300 μg/ml G418 and 2 mM L-Glutamine) and incubated at 37° C. with 5% CO2. Cells were released from culture flasks using PBS for 1-2 minutes. […]
as §1
^3[H] […] The mixtures were allowed to stand at room temperature for one hour, and were then counted on a Packard TopCount LCS, a generic SPA counting protocol settings (Energy Range: Low, Efficiency Mode: Normal, Region A: 1.50-35.00, Region B: 1.50-256.00, Count Time (min.): 0.40, Background Subtract: none, Half-Life Correction: no, Quench Indicator: tSIS, Platemap blank subtraction: No, Cross talk reduction: Off). […]

SMILES strings stand for the structures.

T1 sequence (P31645 whole entry): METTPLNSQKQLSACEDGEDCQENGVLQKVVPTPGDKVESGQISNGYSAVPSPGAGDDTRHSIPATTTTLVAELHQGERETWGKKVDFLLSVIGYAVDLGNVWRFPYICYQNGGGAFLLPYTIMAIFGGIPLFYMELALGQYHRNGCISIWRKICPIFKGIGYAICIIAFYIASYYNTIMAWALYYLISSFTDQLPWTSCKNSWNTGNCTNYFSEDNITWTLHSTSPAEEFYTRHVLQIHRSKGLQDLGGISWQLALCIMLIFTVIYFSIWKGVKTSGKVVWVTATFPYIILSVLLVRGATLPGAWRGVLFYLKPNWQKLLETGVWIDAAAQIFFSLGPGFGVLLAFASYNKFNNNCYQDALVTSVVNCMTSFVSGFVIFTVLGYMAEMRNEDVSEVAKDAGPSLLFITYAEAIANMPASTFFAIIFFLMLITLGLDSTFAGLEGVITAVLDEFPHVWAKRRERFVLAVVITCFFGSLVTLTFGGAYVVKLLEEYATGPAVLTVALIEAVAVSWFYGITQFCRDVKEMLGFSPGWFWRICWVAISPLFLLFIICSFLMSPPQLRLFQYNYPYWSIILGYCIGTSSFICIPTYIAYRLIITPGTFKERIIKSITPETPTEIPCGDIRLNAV
T3 sequence (P23975 whole entry): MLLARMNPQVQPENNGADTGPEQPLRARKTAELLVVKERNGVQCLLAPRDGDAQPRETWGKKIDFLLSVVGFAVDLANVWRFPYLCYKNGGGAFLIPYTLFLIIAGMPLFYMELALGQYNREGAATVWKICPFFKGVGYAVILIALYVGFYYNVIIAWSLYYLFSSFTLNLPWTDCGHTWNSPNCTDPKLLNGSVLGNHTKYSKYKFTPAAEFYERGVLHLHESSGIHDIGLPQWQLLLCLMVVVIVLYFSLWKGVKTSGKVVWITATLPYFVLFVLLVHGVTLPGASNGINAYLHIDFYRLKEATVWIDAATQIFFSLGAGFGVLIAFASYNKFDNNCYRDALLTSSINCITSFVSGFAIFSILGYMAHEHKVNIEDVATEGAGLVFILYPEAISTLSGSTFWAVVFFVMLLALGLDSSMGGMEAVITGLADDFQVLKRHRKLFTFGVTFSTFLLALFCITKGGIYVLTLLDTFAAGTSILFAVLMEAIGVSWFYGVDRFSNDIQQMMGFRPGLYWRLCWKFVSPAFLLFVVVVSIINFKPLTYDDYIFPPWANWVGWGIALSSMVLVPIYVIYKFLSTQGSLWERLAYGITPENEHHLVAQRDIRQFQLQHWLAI

Take `c1ccc2c(c1)CNCCC2c1ccc2[nH]ccc2c1` (stereo not drawn) [5-(1H-Indol-5-yl)-2,3,4,5-tetrahydro-1H-benzo[c]azepine]: the Ki is approximately 126 nM on hSERT transporter, approximately 2 nM in assay [1] and approximately 10 nM at hNET transporter.
